# Experimental data taken from US8236819B2, “Dihydro-[1H]-quinolin-2-one derivatives as RXR agonists for the treatment of dyslipidemia, hypercholesterolemia and diabetes” (Janssen Pharmaceutica N.V., priority 2005, dated 2012).
# “And” between values parts separate entries of the source, which are not always exact repeats. Identical values can stand only once.
# What was measured:
# [1] = tested on: ABCA1 mRNA in THP-1 cells; assay: ABCA1 bDNA assay (ABCA1 mRNA induction); type: cell-based, human; conditions: for EC50 / Emax: Homo sapiens; for EC50: THP-1, THP-1 cells, ABCA1 mRNA induction; for ABCA1 (% max MX-6054) @3 μM / Emax / ABCA1 (% max MX-6054) @0.3 μM: THP-1 cells, relative to max of MX-6054; for Emax: concentration not given
# Method: THP-1 cells, a human monocytic cell line, were obtained from ATCC and maintained in RPMI (Gibco) supplemented with 10% fetal bovine serum (Gibco), 2 mM L-glutamine and 1% antibiotic-antimycotic in 5% CO2 at 37° C. For ABCA1 mRNA induction assays, the cells were pelleted and resuspended in RPMI supplemented with 0.5% charcoal treated serum (Hyclone), 2 mM glutamine and 1% antibiotic-antimycotic. The cells were plated at a density of 40,000 cells/90 µl and incubated as above for at least 4 hours before the initiation of treatments. Compounds were prepared as 10 mM stocks in DMSO. For treatments, the compounds were diluted in medium and 10 µl of 10× stocks were added to the cells at a final concentration 0.1% DMSO. The cells were incubated for the desired amount of time (usually 18-24 hrs) and then lyzed with 50 µl of Quantigene HV bDNA lysis buffer which also contained the ABCA1 bDNA probes (probe sequences shown below): […]
# [2] = target: T1, RXR (Homo sapiens, UniProt P19793); assay: RXR co-transfection assay (GAL4 fusion, luciferase reporter, HEK293 cells); type: cell-based; conditions: for RXR co-transfection (% of 2,4-thiazolidinedione, 5-[[3-(1-ethyl-1,2,3,4-tetrahydro-4,4,6-trimethyl-2-oxo-7-quinolinyl)-4-(trifluoro-methoxy)phenyl]methylene]-, (5Z)-): relative to the reference thiazolidinedione
# T1 construct: expressed in transfected cells; host or cells: HEK293
# T1 sequence (P19793 227-458 limits assumed): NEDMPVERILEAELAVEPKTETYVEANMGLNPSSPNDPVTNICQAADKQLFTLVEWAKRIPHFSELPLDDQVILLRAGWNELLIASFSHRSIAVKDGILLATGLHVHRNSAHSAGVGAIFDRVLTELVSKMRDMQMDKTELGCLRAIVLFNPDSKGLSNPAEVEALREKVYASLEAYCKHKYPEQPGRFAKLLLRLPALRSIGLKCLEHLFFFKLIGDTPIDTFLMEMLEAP
# Method: The nucleic acid sequence from 676-1464 bp (accession number X52773) encoding the ligand binding domains was subcloned into the pM vector (BD Biosciences Clontech, Palo Alto, Calif.) and were fused with the DNA binding domain of yeast GAL4. HEK293 cells were cultured in DMEM/F12 medium supplemented with 10% FBS and 1% I-glutamine (growth medium). Cells were seeded at a density of 5-10×10^6 cells in 50 ml of growth medium and left overnight. The medium was removed and the cells were washed with 15 ml of OptiMEM serum free medium (Invitrogen Corp). The cells were transfected using OptiMEM serum free medium and DMRIE transfection reagent (Invitrogen Corp). Approximately 10-30 ng of DNA for the different receptors and 5-10 ng of the luciferase reporter (1:1 ratio for RAR and 4:1 ratio for RXR of receptor DNA:reporter DNA) were gently mixed with 51 µl of DMRIE reagent in a total volume of 17 ml of OptiMEM medium. Eighteen hours after transfection, the cells were washed once with growth medium and then incubated for 6 hrs in 30 ml of growth medium. The cells were then trypsinized, and reseeded at a density of 50,000 per well in 96 well plates and left overnight. The medium was replaced with 90 µl of medium containing DMEM/F12 supplemented with 0.5% charcoal-treated FBS (HyClone; Logan, Utah) and 1% glutamine. Compounds or vehicle were added in 10 µl of 10× concentration of compound or vehicle (0.1% dimethyl sulfoxide). The cells were treated for 16-18 hours, lysed and assayed for luciferase activity using the Steady Glo luciferase assay kit (Promega, Madison, Wis.).
structure (smiles),measurement,setting,value
"Cc1cc2c(cc1-c1cc([C@@H]3C[C@H]3C(=O)O)ccc1OC(F)(F)F)N(C)C(=O)CC2(C)C (racemic) [Compound 42, (□)-2-[3-(1,4,4,6-Tetramethyl-2-oxo-1,2,3,4-tetrahydro-quinolin-7-yl)-4-trifluoromethoxy-phenyl]-cyclopropanecarboxylic acid]",EC50,[1],> 1400 nM
same,ABCA1 (% max MX-6054) @3 μM,[1],(38% @3 μM)
same,EC50,[2],144 nM
same,"RXR co-transfection (% of 2,4-thiazolidinedione, 5-[[3-(1-ethyl-1,2,3,4-tetrahydro-4,4,6-trimethyl-2-oxo-7-quinolinyl)-4-(trifluoro-methoxy)phenyl]methylene]-, (5Z)-)",[2],(108%)
"Cc1cc2c(cc1-c1cc([C@@H]3C[C@H]3C(=O)O)ccc1OC(F)(F)F)N(C(C)C)C(=O)CC2(C)C (racemic) [Compound 43, (□)-2-[3-(1-Isopropyl-4,4,6-trimethyl-2-oxo-1,2,3,4-tetrahydro-quinolin-7-yl)-4-trifluoromethoxy-phenyl]-cyclopropanecarboxylic acid]",EC50,[1],> 1000 nM
same,ABCA1 (% max MX-6054) @3 μM,[1],(56% @3 μM)
same,EC50,[2],2.9 nM and 7.1 nM
"COc1ccc([C@@H]2C[C@H]2C(=O)O)cc1-c1cc2c(cc1C)C(C)(C)CC(=O)N2C(C)C (racemic) [Compound 44, (□)-2-[3-(1-Isopropyl-4,4,6-trimethyl-2-oxo-1,2,3,4-tetrahydro-quinolin-7-yl)-4-methoxy-phenyl]-cyclopropanecarboxylic acid]",EC50,[1],1520 nM
same,Emax,[1],29%
same,EC50,[2],251 nM and 164 nM
"CCN1C(=O)CC(C)(C)c2cc(C)c(-c3cc(/C=C/C(=O)O)ccc3OCC(F)(F)F)cc21 [Compound 1, 3-[3-(1-Ethyl-4,4,6-trimethyl-2-oxo-1,2,3,4-tetrahydro-quinolin-7-yl)-4-(2,2,2-trifluoro-ethoxy)-phenyl]-acrylic acid]",melting point,,237 to 241 °C
same,Emax,[1],60%
same,EC50,[2],57.2 nM and 72.3 nM and 72.4 nM
"CCN1C(=O)CC(C)(C)c2cc(C)c(-c3cc(/C=C/C(=O)O)ccc3OC(F)(F)F)cc21 [Compound 2, 3-[3-(1-Ethyl-4,4,6-trimethyl-2-oxo-1,2,3,4-tetrahydro-quinolin-7-yl)-4-trifluoromethoxy-phenyl]-acrylic acid]",EC50,[1],~3.6 nM
same,Emax,[1],81%
same,EC50,[2],1 nM and 2.5 nM
"Cc1cc2c(cc1-c1cc(/C=C/C(=O)O)ccc1OC(F)(F)F)N(C)C(=O)CC2(C)C [Compound 3, 3-[3-(1,4,4,6-Tetramethyl-2-oxo-1,2,3,4-tetrahydro-quinolin-7-yl)-4-trifluoromethoxy-phenyl]-acrylic acid]",EC50,[1],200 nM
same,ABCA1 (% max MX-6054) @3 μM,[1],(56% @3 μM)
same,EC50,[2],12.8 nM and 35.8 nM
"Cc1cc2c(cc1-c1cc(/C=C/C(=O)O)ccc1OC(F)(F)F)N(C(C)C)C(=O)CC2(C)C [Compound 4, 3-[3-(1-Isopropyl-4,4,6-trimethyl-2-oxo-1,2,3,4-tetrahydro-quinolin-7-yl)-4-trifluoromethoxy-phenyl]-acrylic acid]",EC50,[1],10 nM
same,ABCA1 (% max MX-6054) @0.3 μM,[1],(70.3% @0.3 μM)
same,EC50,[2],16.3 nM
same,"RXR co-transfection (% of 2,4-thiazolidinedione, 5-[[3-(1-ethyl-1,2,3,4-tetrahydro-4,4,6-trimethyl-2-oxo-7-quinolinyl)-4-(trifluoro-methoxy)phenyl]methylene]-, (5Z)-)",[2],(97%)
"CCN1C(=O)CC(C)(C)c2cc(C)c(-c3cc(/C=C(\C)C(=O)O)ccc3OC(F)(F)F)cc21 [Compound 9, 3-[3-(1-Ethyl-4,4,6-trimethyl-2-oxo-1,2,3,4-tetrahydro-quinolin-7-yl)-4-trifluoromethoxy-phenyl]-2-methyl-acrylic acid]",EC50,[1],100 nM
same,ABCA1 (% max MX-6054) @0.3 μM,[1],(39.9% @0.3 μM)
same,EC50,[2],31.7 nM and 24.2 nM
"Cc1cc2c(cc1-c1cc(/C=C/C(=O)O)ccc1OCC(F)(F)F)N(C(C)C)C(=O)CC2(C)C [Compound 11, 3-[3-(1-Isopropyl-4,4,6-trimethyl-2-oxo-1,2,3,4-tetrahydro-quinolin-7-yl)-4-(2,2,2-trifluoro-ethoxy)-phenyl]-acrylic acid]",EC50,[1],44 nM
same,EC50,[2],23.1 nM
same,"RXR co-transfection (% of 2,4-thiazolidinedione, 5-[[3-(1-ethyl-1,2,3,4-tetrahydro-4,4,6-trimethyl-2-oxo-7-quinolinyl)-4-(trifluoro-methoxy)phenyl]methylene]-, (5Z)-)",[2],(64%)
"COc1ccc(/C=C/C(=O)O)cc1-c1cc2c(cc1C)C(C)(C)CC(=O)N2C(C)C [Compound 12, 3-[3-(1-isopropyl-4,4,6-trimethyl-2-oxo-1,2,3,4-tetrahydro-quinolin-7-yl)-4-methoxy-phenyl]-acrylic acid]",EC50,[1],510 nM
same,Emax,[1],59%
same,EC50,[2],71.2 nM and 62.7 nM and 36.7 nM
same,"RXR co-transfection (% of 2,4-thiazolidinedione, 5-[[3-(1-ethyl-1,2,3,4-tetrahydro-4,4,6-trimethyl-2-oxo-7-quinolinyl)-4-(trifluoro-methoxy)phenyl]methylene]-, (5Z)-)",[2],(85%)
"CCN1C(=O)CC(C)(C)c2cc(C)c(-c3cc(CCC(=O)O)ccc3OC(F)(F)F)cc21 [Compound 26, 3-[3-(1-Ethyl-4,4,6-trimethyl-2-oxo-1,2,3,4-tetrahydro-quinolin-7-yl)-4-trifluoromethoxy-phenyl]-propionic acid]",EC50,[1],47 nM
same,Emax,[1],56.8%
same,EC50,[2],7.1 nM and 7.3 nM
"Cc1cc2c(cc1-c1cc(CCC(=O)O)ccc1OC(F)(F)F)N(C(C)C)C(=O)CC2(C)C [Compound 28, 3-[3-(1-Isopropyl-4,4,6-trimethyl-2-oxo-1,2,3,4-tetrahydro-quinolin-7-yl)-4-trifluoromethoxy-phenyl]-propionic acid]",EC50,[1],1 nM
same,Emax,[1],59%
same,EC50,[2],3.4 nM
same,"RXR co-transfection (% of 2,4-thiazolidinedione, 5-[[3-(1-ethyl-1,2,3,4-tetrahydro-4,4,6-trimethyl-2-oxo-7-quinolinyl)-4-(trifluoro-methoxy)phenyl]methylene]-, (5Z)-)",[2],(80%)
"CCN1C(=O)CC(C)(C)c2cc(C)c(-c3cc(C(C)CC(=O)O)ccc3OC(F)(F)F)cc21 (stereo not shown) [Compound 30, 3-[3-(1-Ethyl-4,4,6-trimethyl-2-oxo-1,2,3,4-tetrahydro-quinolin-7-yl)-4-trifluoromethoxy-phenyl]-butyric acid]",EC50,[1],347 nM
same,Emax,[1],160%
same,EC50,[2],46.3 nM and 29.1 nM
"Cc1cc2c(cc1-c1cc(CCC(=O)O)ccc1OCC(F)(F)F)N(C(C)C)C(=O)CC2(C)C [Compound 31, 3-[3-(1-Isopropyl-4,4,6-trimethyl-2-oxo-1,2,3,4-tetrahydro-quinolin-7-yl)-4-(2,2,2-trifluoro-ethoxy)-phenyl]-propionic acid]",EC50,[1],369 nM
same,Emax,[1],45%
same,EC50,[2],59.6 nM and 12.6 nM and 37.2 nM
"CCN1C(=O)CC(C)(C)c2cc(C)c(-c3cc(/C=C\C(=O)O)ccc3OC(F)(F)F)cc21 [Compound 58, 3-[3-(1-Ethyl-4,4,6-trimethyl-2-oxo-1,2,3,4-tetrahydro-quinolin-7-yl)-4-trifluoromethoxy-phenyl]-acrylic acid]",EC50,[1],886 nM
same,Emax,[1],75%
same,EC50,[2],~50.9 nM and 27.2 nM
